Common to all, as to experiment: NCI-60 cell line screen, 48 h
The test system of assay [1] is COLO 205 colon.
The test system of assay [2] is HOP-62 NSCLC.
For assay [3], the system named is IGROV1 ovarian.
The subject of assay [4] is K-562 leukemia.
Assay [5] has as its system PC-3 prostate.
Assay [6] deals with SF-295 CNS.
In assay [7] the test system is SK-MEL-5 melanoma.
The subject of assay [8] is SK-OV-3 ovarian.
Assay [9] concerns SNB-19 CNS.
Assay [10] concerns UACC-257 melanoma.
The subject of assay [11] is UACC-62 melanoma.

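48-hour exposure; five concentrations; linearly interpolated endpoints. GI50 is the concentration that inhibits growth by half. The concentration for full growth arrest is given as TGI.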

As to `COc1ccc2c(C(=O)c3cn(CCN4CCOCC4)c4ccccc34)cccc2c1`, the TGI is greater than 92 µM in [1]; greater than 100 µM in [2]; greater than 100 µM in assay [3]; greater than 100 µM in [4]; greater than 100 µM in [5]; greater than 54.8 µM in [6]. In addition, the TGI in assay [7], in assay [8], in assay [9], in assay [10] and in assay [11] was greater than 100 µM in each case.

On to `COc1ccc(C2=C3SC=c4ccccc4=C3ON=C2c2ccccc2)cc1`, for which the TGI in assay [1], in [2], in assay [3], in assay [4], in assay [5] and in assay [6] was greater than 100 µM each time. The TGI in assay [7], in [9], in assay [10] and in [11] was greater than 100 µM throughout.

In the case of `CC(=O)O[C@H]1CC[C@@]2(C)C(=CC[C@H]3[C@@H]4C/C(=C\c5ccc(N(C)C)cc5)[C@H](OC(C)=O)[C@@]4(C)CC[C@@H]32)C1`, the TGI in assay [1] was 29.4 µM; in assay [2], 51.6 µM; in assay [3] it was 28.4 µM; in [4], greater than 100 µM; in [5] it was 16.7 µM; in assay [6], 21 µM. Also, the TGI in [7] is 74.9 µM; in [8], greater than 100 µM; in assay [9], 27.3 µM; in [10], 21.4 µM; in assay [11] it was 20.7 µM.

Turning to `Oc1cn(-c2ccc(Cl)cc2)nc1-c1n[nH]c(=S)n1-c1ccccc1`, the TGI in assay [1] is 54.9 µM; in assay [2] it was 22.7 µM; in assay [3], 22.2 µM; in assay [4] it was greater than 100 µM; in assay [5], greater than 100 µM; in [6], 19.8 µM. The TGI in [7] was 15.4 µM; in [8] it was 51.3 µM; in assay [9], greater than 100 µM; in assay [10], greater than 100 µM; in assay [11], 28 µM.

Regarding `COc1ccc(-c2nc3ncccn3c2-c2ccc(SC)cc2)cc1`, the TGI in [1] is 3.31 µM; in assay [2], 44.3 µM; in assay [3], 8.15 µM; in [4], greater than 100 µM; in [5], greater than 100 µM; in assay [6] it was 3 µM. For the same compound, the TGI in assay [7] is 4.29 µM; in assay [8], 2.85 µM; in [9], 5.94 µM; in [10] it was greater than 100 µM; in assay [11] it was 13 µM.

As for `CC(=O)NNc1nc(-c2ccc([N+](=O)[O-])cc2)c(C#N)c(=O)n1C`, the TGI in [1] was greater than 100 µM; in [2], 52.5 µM; in assay [3] it was 35 µM; in assay [4] it was 89.5 µM; in assay [5] it was greater than 100 µM; in [6] it was greater than 100 µM. The TGI in [7], in [8], in assay [9], in [10] and in assay [11] was greater than 100 µM each time.

Consider `CN(C)C(=O)/C=C/c1c[nH]c(=O)[nH]c1=O`, for which the TGI in assay [1], in [2], in assay [3], in assay [4], in assay [6] and in assay [7] was greater than 500 µM each time. Moreover, the TGI in assay [8] was greater than 280 µM; in [9], greater than 500 µM; in assay [10], greater than 500 µM; in [11], greater than 500 µM.

For the compound `Cc1c2cccc-2c(OCCO)cc2c3ccccc3n(C)c12`, the TGI in assay [1] was 3.24 µM; in assay [2], 16.1 µM; in assay [3] it was 7.77 µM; in assay [4], 21.4 µM; in assay [5], 11.5 µM; in assay [6] it was 16.9 µM. Further, the TGI in [7] is 5.77 µM; in assay [8] it was 7.34 µM; in [9] it was 18.6 µM; in assay [10] it was 17.6 µM; in [11] it was 17.5 µM.

For `C[C@H]1C(=O)O[C@@H]2CCN3CC=C(COC(=O)[C@](C)(O)[C@@]1(C)O)[C@H]23`, the TGI in [1], in assay [2], in assay [3], in assay [4], in [5] and in [6] was greater than 100 µM in each case. Further, the TGI in [7], in [8], in [9], in assay [10] and in [11] was greater than 100 µM throughout.

Consider `COc1cc(/C=C/C(=O)Oc2ccc(NC(C)=O)cc2)ccc1C(=O)O/C=C/c1ccccc1`, for which the TGI was greater than 100 µM in assay [1]; greater than 100 µM in assay [2]; greater than 100 µM in assay [3]; greater than 31.6 µM in assay [4]; greater than 100 µM in assay [6]; greater than 100 µM in assay [7]. The TGI in assay [8], in assay [9], in assay [10] and in assay [11] was greater than 100 µM throughout.

Turning to `COc1ccc2c(c1)CCCN2CCCCCCCCCCN(CCC(C)C)CCC(C)C`, the TGI worked out at 26.6 µM in [1]; 26.1 µM in [2]; 27.7 µM in [3]; 40 µM in [4]; 27.4 µM in [6]; 18.9 µM in assay [7]. In addition, the TGI in [8] is 40.9 µM; in assay [9] it was 27.7 µM; in [10], 32.5 µM; in [11], 27.1 µM.

Take `Nc1n[nH]c(=O)c2c1c(I)cn2C1OC(CO)C(O)C1O` (centres undefined): the TGI is 7.81 µM in assay [1]; 21.5 µM in [2]; greater than 100 µM in assay [3]; greater than 100 µM in [4]; 9.74 µM in assay [6]; 13.6 µM in assay [7]. Also, the TGI was greater than 100 µM in assay [8], greater than 100 µM in [9], 13.4 µM in assay [10] and 13.3 µM in assay [11].

For `COc1ccc(/C(Cl)=C(\C=O)c2ccc(OC)cc2)cc1`, the TGI in assay [2], in assay [3], in assay [4], in assay [6], in assay [7] and in [8] was greater than 100 µM each time. Further, the TGI in assay [9], in assay [10] and in [11] was greater than 100 µM throughout.

`CCCOC(=O)CNC(=O)OC(C)(C)C`: the TGI in assay [1], in assay [2], in [3], in assay [4], in [6] and in [7] was greater than 100 µM throughout. Besides, the TGI in assay [8], in [9], in assay [10] and in assay [11] was greater than 100 µM throughout.

As for `CCc1nc(N)nc(N)c1-c1ccc([N+](C)(C)C)cc1`, the TGI in assay [1], in [2], in assay [3], in assay [4], in [5] and in [6] was greater than 100 µM each time. Besides, the TGI in assay [7], in [8], in assay [9], in assay [10] and in assay [11] was greater than 100 µM throughout.

With `Nc1ccccc1N=Cc1cc2cc([N+](=O)[O-])ccc2s1`, the TGI is 45.5 µM in [1]; 31.7 µM in assay [2]; 99.3 µM in [3]; 35.1 µM in assay [4]; 30.9 µM in [5]; greater than 100 µM in assay [6]. The TGI was greater than 100 µM in assay [7]; 29.7 µM in [8]; 46.6 µM in assay [9]; 51.2 µM in [10]; 38.1 µM in [11].

For the compound `COC(C)(C)OCCN1CCN(CCN2C3=C(C=C(C(C)=O)C3)Sc3ccccc32)CC1`, the TGI in assay [1] turned out to be 33.4 µM; in assay [2] it was 36.2 µM; in assay [3], 35.5 µM; in assay [4] it was 32.2 µM; in [5] it was 72.9 µM; in assay [6] it was 36.7 µM. Further, the TGI is 32 µM in assay [7]; 79.8 µM in assay [8]; 93.3 µM in [9]; 36.9 µM in assay [10]; 29.4 µM in [11].

For `CN(C)CCNC(=O)c1cccc2ccc(-c3ccc(F)cc3)nc12`, the TGI in [1] came out at 10.9 µM; in assay [2] it was 27.8 µM; in assay [3], 20.3 µM; in [4] it was 12 µM; in [6], 19.7 µM; in [7], 11.1 µM. For the same compound, the TGI was 24.8 µM in [8], 33.7 µM in [9], 17.9 µM in assay [10] and 13.4 µM in assay [11].

In the case of `COc1cc(C2CC(c3cccc(Nc4ccncc4)c3)=NN2c2ccc(Cl)cc2)cc(OC)c1OC` (centres undefined), the GI50 in [1] was 2120 nM; in [4], 1810 nM; in assay [5] it was 1400 nM; in assay [6] it was 1680 nM; in assay [7], 1750 nM; in assay [8] it was 1770 nM. Moreover, the GI50 in assay [9] was 1550 nM; in [10], 1960 nM; in assay [11], 1690 nM. The TGI in assay [1] is 4.79 µM; in assay [4], 4.71 µM; in assay [5], 3 µM; in [6], 3.05 µM; in assay [7], 3.14 µM; in assay [8], 3.43 µM. In addition, the TGI was determined as 2.91 µM in assay [9], 3.84 µM in assay [10] and 3.14 µM in [11].

On to `CN(C)CCCn1cnc2cc(Cl)c(Cl)cc21`, for which the TGI in [1], in assay [2], in assay [3], in [4], in [5] and in assay [6] was greater than 100 µM each time. Also, the TGI is greater than 100 µM in assay [7]; greater than 100 µM in [8]; greater than 100 µM in [9]; 40.7 µM in assay [10]; 82.2 µM in assay [11].

For `O=P1(c2ccccc2)Nc2ccccc2SSc2ccccc2N1`, the TGI in assay [1] was 42.4 µM; in [3], 38.2 µM; in [4], 51.4 µM; in assay [6], 30.3 µM; in assay [7], 31.6 µM; in [8], 44.4 µM. Besides, the TGI in assay [9] was determined as 30.3 µM; in assay [10], 30.3 µM; in [11], 29.8 µM.

Turning to `Cc1cc(/N=C/c2ccc(F)cc2)n(-c2ccccc2)n1`, the TGI in assay [1], in assay [2], in [3], in assay [4], in assay [5] and in assay [6] was greater than 100 µM each time. The TGI in [7], in assay [8], in assay [9], in assay [10] and in [11] was greater than 100 µM throughout.

For `Cc1cc2c(cc1C(=O)c1ccc(N)cc1)OCO2`, the TGI is 41.5 µM in [1]; greater than 100 µM in assay [2]; greater than 100 µM in assay [3]; greater than 100 µM in assay [4]; greater than 100 µM in assay [5]; 86 µM in assay [6]. Also, the TGI in [7] was 61.4 µM; in [8] it was 85.6 µM; in [9] it was greater than 100 µM; in assay [10], greater than 100 µM; in assay [11], greater than 100 µM.

For `O=C(Nc1ccc([N+](=O)[O-])cc1[N+](=O)[O-])C(=O)C(C(=O)c1ccc2ccccc2c1)C1OC(=O)c2ccccc21` (centres undefined), the TGI in assay [1] was determined as 35 µM; in [2], 68.4 µM; in assay [3], 43.5 µM; in assay [4] it was 38.8 µM; in assay [6], 55.1 µM; in [7], 31.6 µM. For the same compound, the TGI in assay [8] stood at 42.1 µM; in assay [9], 33 µM; in assay [10], 58 µM; in [11] it was 30.2 µM.

Take `FC(F)(F)c1ccc2c(c1)nc(-c1ccc(Cl)cc1)n2CC1CCCN2CCCCC12` (centres undefined): the TGI in assay [1] stood at 24.4 µM; in assay [2], 28.6 µM; in assay [3] it was 27.8 µM; in assay [5] it was 23.7 µM; in assay [6] it was 31.7 µM; in [7], 27.1 µM. Also, the TGI was 21.3 µM in [8], 31.2 µM in assay [9], 28.7 µM in assay [10] and 28.1 µM in assay [11].

The values above are taken from PubChem BioAssay (NCI).
